Measurements published in ChEMBL document CHEMBL1201862, “PubChem BioAssay data set” (2004).
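Protocol summary: plate cells (96-well), add compound at 5 concentrations, incubate 48 h, interpolate endpoints linearly. GI50 = concentration required for 50% inhibition of growth.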 Activity calls are given as the source filed them. Rule as the data show it: active = GI50 up to about 1.1 µM and inactive = higher.

Columns and labels:
Assay in all cases: inhibition of tumour cell growth, NCI panel, 48 h
NCI-H460 = system: NCI-H460
SK-MEL-28 = system: SK-MEL-28
CAKI-1 = system: CAKI-1
NCI/ADR-RES = system: NCI/ADR-RES
SF-268 = system: SF-268
UACC-257 = system: UACC-257
MDA-N = system: MDA-N
SNB-75 = system: SNB-75
786-0 = system: 786-0
KM12 = system: KM12
OVCAR-8 = system: OVCAR-8
HT-29 = system: HT-29
T47D = system: T47D
K562 = system: K562
HOP-62 = system: HOP-62
PC-3 = system: PC-3
LOX IMVI = system: LOX IMVI
HCT-15 = system: HCT-15
MDA-MB-435 = system: MDA-MB-435
MOLT-4 = system: MOLT-4
RPMI-8226 = system: RPMI-8226
OVCAR-5 = system: OVCAR-5
HCT-116 = system: HCT-116
SK-MEL-2 = system: SK-MEL-2
UO-31 = system: UO-31
SF-295 = system: SF-295
A498 = system: A498
U-251 = system: U-251
DU-145 = system: DU-145
SW-620 = system: SW-620
TK-10 = system: TK-10
OVCAR-4 = system: OVCAR-4
EKVX = system: EKVX
SR = system: SR
IGROV-1 = system: IGROV-1
HL-60 = system: HL-60
HOP-92 = system: HOP-92
MDA-MB-231 = system: MDA-MB-231
NCI-H522 = system: NCI-H522
ACHN = system: ACHN
OVCAR-3 = system: OVCAR-3
Hs-578T = system: Hs-578T
NCI-H23 = system: NCI-H23
MCF7 = system: MCF7
NCI-H226 = system: NCI-H226
SF-539 = system: SF-539
SK-MEL-5 = system: SK-MEL-5
RXF 393 = system: RXF 393
A549 = system: A549
BT-549 = system: BT-549
M14 = system: M14
SNB-19 = system: SNB-19
HCC 2998 = system: HCC 2998
UACC-62 = system: UACC-62
SK-OV-3 = system: SK-OV-3
COLO 205 = system: COLO 205
SN12C = system: SN12C
CCRF-CEM = system: CCRF-CEM

CCc1nn(CN2CCOCC2)c(=S)n1/N=C/c1ccc(-c2ccc(Cl)cc2)o1
GI50 (NCI-H460): > 100 µM (inactive)
GI50 (SK-MEL-28): > 100 µM (inactive)
GI50 (CAKI-1): > 100 µM (inactive)
GI50 (NCI/ADR-RES): > 100 µM (inactive)
GI50 (SF-268): > 100 µM (inactive)
GI50 (UACC-257): > 100 µM (inactive)
GI50 (MDA-N): > 100 µM (inactive)
GI50 (SNB-75): 50.8 µM (inactive)
GI50 (786-0): > 100 µM (inactive)
GI50 (KM12): > 100 µM (inactive)
GI50 (OVCAR-8): > 100 µM (inactive)
GI50 (HT-29): > 100 µM (inactive)
GI50 (T47D): > 100 µM (inactive)
GI50 (K562): > 100 µM (inactive)
GI50 (HOP-62): > 100 µM (inactive)
GI50 (PC-3): > 100 µM (inactive)
GI50 (LOX IMVI): > 100 µM (inactive)
GI50 (HCT-15): > 100 µM
GI50 (MDA-MB-435): > 100 µM (inactive)
GI50 (MOLT-4): > 100 µM (inactive)
GI50 (RPMI-8226): 51.5 µM (inactive)
GI50 (OVCAR-5): > 100 µM (inactive)
GI50 (HCT-116): > 100 µM (inactive)
GI50 (SK-MEL-2): > 100 µM (inactive)
GI50 (UO-31): > 100 µM (inactive)
GI50 (SF-295): > 100 µM (inactive)
GI50 (A498): > 100 µM (inactive)
GI50 (U-251): > 100 µM (inactive)
GI50 (DU-145): > 100 µM (inactive)
GI50 (SW-620): > 100 µM (inactive)
GI50 (TK-10): > 100 µM (inactive)
GI50 (OVCAR-4): > 100 µM (inactive)
GI50 (EKVX): > 100 µM (inactive)
GI50 (SR): 80.5 µM (inactive)
GI50 (IGROV-1): > 100 µM (inactive)
GI50 (HL-60): 81.1 µM (inactive)
GI50 (HOP-92): > 100 µM (inactive)
GI50 (MDA-MB-231): > 100 µM (inactive)
GI50 (NCI-H522): > 100 µM (inactive)
GI50 (ACHN): > 100 µM (inactive)
GI50 (OVCAR-3): > 100 µM (inactive)
GI50 (Hs-578T): > 100 µM (inactive)
GI50 (NCI-H23): > 100 µM (inactive)
GI50 (MCF7): > 100 µM (inactive)
GI50 (NCI-H226): > 100 µM (inactive)
GI50 (SF-539): > 100 µM (inactive)
GI50 (SK-MEL-5): > 100 µM (inactive)
GI50 (RXF 393): > 100 µM (inactive)
GI50 (A549): > 100 µM (inactive)
GI50 (BT-549): > 100 µM (inactive)
GI50 (M14): > 100 µM (inactive)

CN(O)C(=O)/C=C/c1ccc(OCc2cccc(Cl)c2)cc1
GI50 (NCI-H460): 16.5 µM (inactive)
GI50 (SK-MEL-28): 38.5 µM (inactive)
GI50 (CAKI-1): 26.4 µM (inactive)
GI50 (NCI/ADR-RES): 19.7 µM (inactive)
GI50 (SNB-19): 42.5 µM (inactive)
GI50 (HCC 2998): 23.6 µM (inactive)
GI50 (SF-268): 23.9 µM (inactive)
GI50 (UACC-257): 51.8 µM (inactive)
GI50 (MDA-N): 43.1 µM (inactive)
GI50 (UACC-62): 15 µM (inactive)
GI50 (SNB-75): 26.4 µM (inactive)
GI50 (786-0): 18.7 µM (inactive)
GI50 (KM12): 17.7 µM (inactive)
GI50 (OVCAR-8): 16.3 µM (inactive)
GI50 (HT-29): 18 µM (inactive)
GI50 (T47D): 20.1 µM (inactive)
GI50 (K562): 36.1 µM (inactive)
GI50 (HOP-62): 24.4 µM (inactive)
GI50 (SK-OV-3): 25.6 µM (inactive)
GI50 (PC-3): 24.5 µM (inactive)
GI50 (LOX IMVI): 11.2 µM (inactive)
GI50 (HCT-15): 12.9 µM
GI50 (MDA-MB-435): 32.2 µM (inactive)
GI50 (MOLT-4): 8.77 µM (inactive)
GI50 (RPMI-8226): 27.5 µM (inactive)
GI50 (OVCAR-5): 39.7 µM (inactive)
GI50 (HCT-116): 16.8 µM (inactive)
GI50 (SK-MEL-2): 23.8 µM (inactive)
GI50 (UO-31): 10.1 µM (inactive)
GI50 (SF-295): 22.8 µM (inactive)
GI50 (A498): 17 µM (inactive)
GI50 (COLO 205): 28.9 µM (inactive)
GI50 (U-251): 22 µM (inactive)
GI50 (DU-145): 20.8 µM (inactive)
GI50 (SN12C): 20.1 µM (inactive)
GI50 (SW-620): 26.9 µM (inactive)
GI50 (TK-10): 48.6 µM (inactive)
GI50 (OVCAR-4): 19.6 µM (inactive)
GI50 (EKVX): 26.5 µM (inactive)
GI50 (SR): 7.06 µM (inactive)
GI50 (IGROV-1): 17.3 µM (inactive)
GI50 (HL-60): 18 µM (inactive)
GI50 (HOP-92): 24.3 µM (inactive)
GI50 (MDA-MB-231): 43.9 µM (inactive)
GI50 (NCI-H522): 25.7 µM (inactive)
GI50 (CCRF-CEM): 8.26 µM (inactive)
GI50 (ACHN): 14.5 µM (inactive)
GI50 (OVCAR-3): 38.6 µM (inactive)
GI50 (Hs-578T): 61.7 µM (inactive)
GI50 (NCI-H23): 16.3 µM (inactive)
GI50 (MCF7): 48.6 µM (inactive)
GI50 (NCI-H226): 21.4 µM (inactive)
GI50 (SF-539): 29.2 µM (inactive)
GI50 (SK-MEL-5): 24.2 µM (inactive)
GI50 (RXF 393): 30.7 µM (inactive)
GI50 (A549): 21.2 µM (inactive)
GI50 (BT-549): 21.8 µM (inactive)
GI50 (M14): 28 µM (inactive)
